# Patent publication US8604036B2, “Pyridazinone derivatives” (Merck Patent GmbH, priority 2008, dated 2013)
# Tests used:
# Met kinase [1] = biological target: T1, Met kinase (Homo sapiens, UniProt P08581); assay: Met kinase inhibition (cell); type: cell-based
# Target sequence in this assay (P08581 25-1390): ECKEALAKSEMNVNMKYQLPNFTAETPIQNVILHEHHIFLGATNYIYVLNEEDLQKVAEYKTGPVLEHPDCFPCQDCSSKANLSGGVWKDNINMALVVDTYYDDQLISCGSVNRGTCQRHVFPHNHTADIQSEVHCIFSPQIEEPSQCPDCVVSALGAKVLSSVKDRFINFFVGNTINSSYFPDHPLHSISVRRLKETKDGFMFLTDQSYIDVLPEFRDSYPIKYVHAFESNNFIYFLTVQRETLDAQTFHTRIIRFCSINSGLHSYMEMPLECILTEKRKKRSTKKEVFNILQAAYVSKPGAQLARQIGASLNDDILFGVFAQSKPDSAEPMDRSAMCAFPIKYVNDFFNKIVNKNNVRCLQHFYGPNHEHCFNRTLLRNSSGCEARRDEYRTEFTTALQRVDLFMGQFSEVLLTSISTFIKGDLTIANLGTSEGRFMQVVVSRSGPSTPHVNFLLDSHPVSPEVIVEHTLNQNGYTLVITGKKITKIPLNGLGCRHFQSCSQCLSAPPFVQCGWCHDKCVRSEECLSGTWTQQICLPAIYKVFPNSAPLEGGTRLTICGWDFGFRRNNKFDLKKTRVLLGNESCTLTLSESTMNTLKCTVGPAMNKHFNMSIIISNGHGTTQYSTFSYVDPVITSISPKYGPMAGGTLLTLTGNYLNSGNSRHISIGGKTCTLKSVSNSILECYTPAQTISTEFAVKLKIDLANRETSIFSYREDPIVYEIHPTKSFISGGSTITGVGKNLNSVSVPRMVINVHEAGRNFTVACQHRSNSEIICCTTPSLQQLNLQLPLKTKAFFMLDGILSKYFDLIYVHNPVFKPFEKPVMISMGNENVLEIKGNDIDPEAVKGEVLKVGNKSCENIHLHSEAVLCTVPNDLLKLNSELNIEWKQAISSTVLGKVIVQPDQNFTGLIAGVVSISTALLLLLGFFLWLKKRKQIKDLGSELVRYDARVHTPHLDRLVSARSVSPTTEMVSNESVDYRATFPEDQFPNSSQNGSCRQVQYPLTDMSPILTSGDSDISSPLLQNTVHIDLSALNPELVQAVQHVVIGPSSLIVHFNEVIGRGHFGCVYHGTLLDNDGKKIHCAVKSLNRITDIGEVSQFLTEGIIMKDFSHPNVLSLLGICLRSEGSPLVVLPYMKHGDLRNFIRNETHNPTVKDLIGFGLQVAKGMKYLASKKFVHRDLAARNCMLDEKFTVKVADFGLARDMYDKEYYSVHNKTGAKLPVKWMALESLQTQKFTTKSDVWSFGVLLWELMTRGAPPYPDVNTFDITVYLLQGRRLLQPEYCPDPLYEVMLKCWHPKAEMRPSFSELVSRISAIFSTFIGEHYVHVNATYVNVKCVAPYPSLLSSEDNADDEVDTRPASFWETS
# Met kinase [2] = biological target: T1, Met kinase; assay: Met kinase inhibition, flashplate method (enzyme); type: biochemical; design: 6His (N); purchased Upstate 14-526; host or cells: Sf21 insect cells (S. frugiperda), baculovirus
# Excerpt: Measurement of Met Kinase Activity
# According to the manufacturer's data (Met, active, upstate, catalogue No. 14-526), Met kinase is expressed for the purposes of protein production in insect cells (Sf21; S. frugiperda) and subsequent affinity-chromatographic purification as “N-terminal 6His-tagged” recombinant human protein in a baculovirus expression vector.
# Flashplate Method (Met Kinase)
# The test plates used are 96-well Flashplate® microtitre plates from Perkin Elmer (Cat. No. SMP200). The components of the kinase reaction described below are pipetted into the assay plate. The Met kinase and the substrate poly Ala-Glu-Lys-Tyr, (pAGLT, 6:2:5:1), are incubated for 3 hrs at room temperature with radioactively labelled ^33P-ATP in the presence and absence of test substances in a total volume of 100 μl. The reaction is terminated using 150 μl of a 60 mM EDTA solution. After incubation for a further 30 min at room temperature, the supernatants are filtered off with suction, and the wells are washed three times with 200 μl of 0.9% NaCl solution each time. The measurement of the bound radioactivity is carried out by means of a scintillation measuring instrument (Topcount NXT, Perkin-Elmer).
# The full value used is the inhibitor-free kinase reaction. This should be approximately in the range 6000-9000 cpm. […] The inhibitory values (IC50) are determined using the RS1_MTS program. […]
# Target sequence in this assay (P08581 974-1390 limits assumed): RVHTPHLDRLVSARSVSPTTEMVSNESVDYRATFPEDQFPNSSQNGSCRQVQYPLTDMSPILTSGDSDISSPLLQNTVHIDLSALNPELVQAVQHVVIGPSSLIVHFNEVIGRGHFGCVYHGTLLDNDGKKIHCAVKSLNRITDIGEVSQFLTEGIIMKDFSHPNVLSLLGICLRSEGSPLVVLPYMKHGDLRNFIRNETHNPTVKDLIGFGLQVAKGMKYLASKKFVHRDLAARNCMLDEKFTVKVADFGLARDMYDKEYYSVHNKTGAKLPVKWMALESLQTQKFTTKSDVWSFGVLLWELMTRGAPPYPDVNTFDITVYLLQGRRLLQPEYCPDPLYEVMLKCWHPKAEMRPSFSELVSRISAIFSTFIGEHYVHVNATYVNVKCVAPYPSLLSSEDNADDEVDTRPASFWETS
IC50 (Met kinase [1]) [µM],IC50 (Met kinase [2]) [µM],SMILES
1 to 10,0.01 to 1,"Cc1ccc(-c2cccc(Cn3nc(-c4cc(F)cc(F)c4)ccc3=O)n2)nc1 [Compound A1, 6-(3,5-difluorophenyl)-2-(5′-methyl-[2,2′]bipyridinyl-6-ylmethyl)-2H-pyridazin-3-one]"
0.01 to 1,,"N#Cc1cccc(-c2ccc(=O)n(Cc3cccc(-c4ncc(-c5cnn(CCN6CCCC6)c5)cn4)n3)n2)c1 [Compound A2, 3-[6-oxo-1-(6-{5-[1-(2-pyrrolidin-1-ylethyl)-1H-pyrazol-4-yl]pyrimidin-2-yl}pyridin-2-ylmethyl)-1,6-dihydropyridazin-3-yl]benzonitrile]"
